# In patent publication US10966995B2, “Use of secoisolariciresinol diglucosides (SDGS) and related compounds for protection against radiation and chemical damage” (THE TRUSTEES OF THE UNIVERSITY OF PENNSYLVANIA, priority 2014, dated 2021):
# What was measured:
# [1] = test system: murine primary lung epithelial cells; test: γ-H2AX foci immunostaining, epithelial cells; assay type: cell-based, mouse; conditions: SDG 50 μM 6 h prior IR; 2 Gy; irradiated control 46.7% at 30 min
# Experimental: (§1) Fibroblasts and endothelial cells were isolated from C57/bl6 mouse. For fibroblast isolation, mouse lungs were harvested, minced, and incubated with dispase (2 mg/ml) for 45 minutes. Pieces were plated out and fibroblasts were cultured as described previously and used between passages 3 and 10. Pulmonary microvascular endothelial cells (PMVEC) were isolated from murine lungs as described previously. Briefly, freshly harvested mouse lungs were treated with collagenase followed by isolation of cells by adherence to magnetic beads coated with mAb to platelet endothelial cell adhesion molecule (PECAM). Epithelial cells (C10) cells were originally derived from a normal BALB/c mouse lung explant and are non-tumorigenic, contact-inhibited, and have alveolar type 2 cell features at early passage.
# (§2) For immunostaining of γ-H2AX, cells were plated on glass coverslips (5,000 cells/coverslip), pre-treated (6 h) with 50 μM SDG and irradiated (2 Gy). At desired time interval, cells were fixed (4% para-formaldehyde), washed and blocked with PBST (PBS+0.1% TritonX-100 containing 5% goat serum, 1% BSA). Cells were incubated with γ-H2AX primary antibody (1:200) overnight at 4° C. followed by washing with PBST (3×5 min) and incubation with secondary antibody (Alexa Fluor® 488, Invitrogen, Calif., USA) for 1 hr at RT. Nuclei were counterstained with DAPI and visualized under fluorescence microscope.
# [2] = test system: Nrf2-regulated antioxidant enzymes (AOE); test: SDG dosing study: antioxidant enzyme expression in lung after oral gavage; assay type: in vivo, mouse
# Experimental: SDG doses of 5, 25, 50 and 100 mg/Kg body weight were administered orally to mice (n=5 per dose) and 4 hours later tissues were collected for analysis. Plasma concentrations of SDG and its bioactive metabolites ED, EL and SECO were analyzed by liquid chromatography and mass spectrometry and are expressed in ng/mL (FIG. 39) while gene expression levels of Nrf2-regulated antioxidant enzymes (AOE), an intracellular target of SDG and its metabolites, were determined in lung tissues from the same animals using qRT-PCR (FIG. 40). Gene expression levels of HO1, NQO1 and GST, increased 2-3 fold with as little as 5 mg SDG/Kg and reached an average of 6-fold increase over baseline with 100 mg/Kg SDG.
# [3] = typical range, earlier work; read-out: EC50 values for free radical scavenging and antioxidant effects; cited from earlier work
# [4] = SDG pharmacokinetic study after oral gavage (plasma and lung); assay type: in vivo, mouse
# Experimental: After selecting the 100 mg/kg dose as a dose that induces significant AOE expression while allowing for SDG to be detected in circulation, a pharmacokinetic study was performed to determine bioavailability and biological effects in target tissues (i.e., lung). Blood samples as well as tissues (lung, brain, liver, kidneys, spleen) were collected at 15 min, 30 min, and 1, 2, 4, 6, 8, 12 hours. SDG levels were determined as above in plasma and lung (FIGS. 41A-C). A single dose of 100 mg SDG/Kg was well absorbed and intact SDG was detectable in the circulation up to 6 hours post administration (FIG. 41A) and in flushed, blood-free lung tissues for 4 hours (FIG. 41B). […] The observed gene expression increase correlated with an increase in protein levels determined by western blotting (not shown). […] The use of SDG in human therapy is thus greatly facilitated and the toxicity risk is unlikely. Therefore a dose of 50-100 mg/Kg (1 or 2 mg SDG per day) is sufficient to induce the anticipated protective effects in target tissues and can be used for further study.
# [5] = test system: murine primary lung fibroblasts; test: γ-H2AX foci immunostaining, fibroblasts; assay type: cell-based, mouse; conditions: SDG 50 μM 6 h prior IR; 2 Gy; irradiated control 30.0% at 30 min
# Experimental: as §1, §2
# [6] = test system: mouse peritoneal macrophages; test: Asbestos-exposed peritoneal macrophages: oxidative/nitrosative stress and cytokine secretion; assay type: cell-based; conditions: 20 μg/cm^2 asbestos; 25 and 50 μM SDG 3-8 hours post exposure; p<0.05
# Experimental: To test the hypothesis that the flaxseed lignan SDG will decrease asbestos-induced inflammation, and oxidative and nitrosative stress, mouse peritoneal macrophages were exposed to varying concentrations of crocidolite asbestos fibers ([…]). At variable times post asbestos exposure (3, 4, 6, and 8 hours), cells were incubated with SDG (50 μM) and supernatants collected 24 hours later to detect inflammatory cytokine secretion and nitrosative/oxidative stress (FIG. 49).
# (§3) SDG given to macrophages several hours post exposure to asbestos decreases oxidative stress (FIGS. 52A-52B). Female C57/Bl6 mice were injected with 2 mL of thioglycollate and peritoneal macrophages harvested after 3 days. 2 million cells per well were plated in a 6 well plate and exposed to 20 μg/cm^2 asbestos. Cells were treated with 25 or 50 μM SDG (synthetic SDG) 3, 4, 6, or 8 hours post-asbestos exposure. Cells were harvested 24 hours post-asbestos exposure. Analysis performed on frozen supernatant samples.
# as §3, with “Given” for “given”, “Macrophages Several Hours Post Exposure to Asbestos Decreases Nitrosative Stress (FIGS. 53A-53B). To evaluate of SDG in blunting nitrosative stress in cells” for “macrophages several hours”, “post” for “post exposure to”, “exposure, female” for “decreases oxidative stress (FIGS. 52A-52B). Female”
# SDG Given to Macrophages Several Hours Post Exposure to Asbestos Decreases inflammatory cytokine secretion (IL-1β) (FIGS. 54A-54B). To evaluate SDG in blunting inflammatory cytokine secretion (IL-1β) in cells post asbestos exposure, female C57/Bl6 mice were injected with 2 mL of thioglycollate and peritoneal macrophages harvested after 3 days 2 million cells per well were plated in a 6 well plate and exposed to 20 μg/cm^2 asbestos. Cells were treated with 25 or 50 μM SDG (synthetic SDG) 3, 4, 6, or 8 hours post-asbestos exposure. Cells were harvested 24 hours post-asbestos exposure. Analysis performed on fresh supernatant samples.
# SDG Given to Macrophages Several Hours Post Exposure to Asbestos Decreases inflammatory cytokine secretion (TNF-α) (FIGS. 55A-55B). To evaluate SDG in blunting inflammatory cytokine secretion (TNF-α) in cells post asbestos exposure, female C57/Bl6 mice were injected with 2 mL of thioglycollate and peritoneal macrophages harvested after 3 days. 2 million cells per well were plated in a 6 well plate and exposed to 20 μg/cm^2 asbestos. Cells were treated with 25 or 50 μM SDG (synthetic SDG) 3, 4, 6, or 8 hours post-asbestos exposure. […]
# [7] = 100 mg SDG/Kg oral, 30 minutes post-administration
structure (smiles),measurement,setting,value
"COc1cc(C[C@@H](CO[C@@H]2O[C@H](CO)[C@@H](O)[C@H](O)[C@H]2O)[C@H](CO[C@@H]2O[C@H](CO)[C@@H](O)[C@H](O)[C@H]2O)Cc2ccc(O)c(OC)c2)ccc1O [SDG, secoisolariciresinol diglucoside]",γ-H2AX positive cells,[1],22.7%±2.17
same,"Gene expression levels of HO1, NQO1 and GST in lung, increase","[2]; 5 mg SDG/Kg oral, 4 hours",2-3 fold
same,"Gene expression levels of HO1, NQO1 and GST in lung, average increase over baseline","[2]; 100 mg/Kg SDG oral, 4 hours",6 fold
same,Protein levels in lung tissues,[2]; oral SDG dosing study,lower but yet significant increase
same,EC50,[3],130 to 200 µM
same,"Time SDG detectable in flushed, blood-free lung tissues",[4]; 100 mg SDG/Kg oral,4 h
same,Time intact SDG detectable in the circulation post administration,[4]; 100 mg SDG/Kg oral,up to 6 hours
same,Lung tissue concentration of SDG,[4]; [7],12.6 µM
same,Plasma concentration of SDG,[4]; [7],0.8 µM
same,Absorption,"[4]; single dose of 100 mg SDG/Kg, oral gavage",well absorbed
same,γ-H2AX positive cells,[5],22.1%±1.9
same,IL-1β levels,[6],significantly decreased
same,"Malondialdehyde (MDA) levels, lipid peroxidation",[6],significantly decreased
same,"Nitrite, marker for nitrosative stress",[6],significantly decreased
same,TNF-α levels,[6],significantly decreased
